Structures can show the parent of a compound that is named as a salt. Bounds are passed on as bounds.

We go through 19 compounds from patent publication US9884063B2, “Amido-substituted azole compounds” (Bayer Pharma Aktiengesellschaft, priority 2014, dated 2018).

This test deals with T1, TNKS1 (Homo sapiens, UniProt O95271).
T1 sequence (O95271 1-1327): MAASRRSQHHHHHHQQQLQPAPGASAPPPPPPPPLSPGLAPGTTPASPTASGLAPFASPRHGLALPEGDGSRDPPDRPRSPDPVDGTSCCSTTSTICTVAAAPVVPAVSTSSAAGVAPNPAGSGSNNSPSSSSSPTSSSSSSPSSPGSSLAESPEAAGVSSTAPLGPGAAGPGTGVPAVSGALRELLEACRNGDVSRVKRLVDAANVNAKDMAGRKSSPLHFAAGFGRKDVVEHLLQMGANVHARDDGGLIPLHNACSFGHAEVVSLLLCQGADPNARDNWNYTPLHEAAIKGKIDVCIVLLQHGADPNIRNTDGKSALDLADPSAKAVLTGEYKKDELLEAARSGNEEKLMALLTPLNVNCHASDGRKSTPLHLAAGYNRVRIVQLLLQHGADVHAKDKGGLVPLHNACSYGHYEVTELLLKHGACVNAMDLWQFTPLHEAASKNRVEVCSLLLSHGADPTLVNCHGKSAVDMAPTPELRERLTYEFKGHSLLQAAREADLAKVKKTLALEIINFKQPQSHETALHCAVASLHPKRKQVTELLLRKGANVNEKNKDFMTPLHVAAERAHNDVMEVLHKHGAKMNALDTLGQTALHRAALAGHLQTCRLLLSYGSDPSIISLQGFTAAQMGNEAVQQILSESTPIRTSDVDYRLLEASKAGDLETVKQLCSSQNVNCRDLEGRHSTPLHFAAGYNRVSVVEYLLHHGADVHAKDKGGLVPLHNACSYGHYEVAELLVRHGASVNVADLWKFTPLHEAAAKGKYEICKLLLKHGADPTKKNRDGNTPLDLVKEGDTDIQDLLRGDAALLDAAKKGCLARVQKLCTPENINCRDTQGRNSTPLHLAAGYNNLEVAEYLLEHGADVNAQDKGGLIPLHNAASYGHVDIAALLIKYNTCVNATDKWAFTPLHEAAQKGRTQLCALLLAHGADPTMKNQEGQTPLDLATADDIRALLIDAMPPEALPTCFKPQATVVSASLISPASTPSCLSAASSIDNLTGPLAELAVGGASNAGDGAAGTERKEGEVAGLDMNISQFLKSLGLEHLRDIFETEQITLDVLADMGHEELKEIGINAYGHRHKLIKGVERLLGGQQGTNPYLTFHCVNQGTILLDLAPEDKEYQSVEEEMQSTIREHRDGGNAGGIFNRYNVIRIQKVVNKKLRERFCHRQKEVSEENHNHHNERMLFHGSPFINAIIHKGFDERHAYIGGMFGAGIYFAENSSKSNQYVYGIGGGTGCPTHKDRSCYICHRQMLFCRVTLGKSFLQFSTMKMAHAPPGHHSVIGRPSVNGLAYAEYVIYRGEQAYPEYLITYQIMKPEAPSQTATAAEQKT
Briefly: Modified TNKS1 Assay 3 (BPS kit #80573, biotin-NAD+, 96 well). Conditions: human TNKS1, BPS kit #80573, 96 well. The format is biochemical. A digest of the protocol:
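Chemiluminescent assay of TNKS1-catalysed ribosylation of a protein substrate with biotin-labelled NAD+, detected via streptavidin-HRP; run per kit protocol. Inhibition lowers the signal, and IC50 is the compound concentration halving the normalised readout.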
In general, IC50 refers to the concentration that inhibits the measured activity by half. High values mean a need for much substance, low ones inhibition by little substance. `CNC(=O)c1nc[nH]c1C(=O)Nc1ccc(NC(=O)c2ccc(OC)cc2Cl)cc1` [Example 246, N^5-{4-[(2-chloro-4-methoxybenzoyl)amino]phenyl}-N^4-methyl-1H-imidazole-4,5-dicarboxamide]: the half-maximal inhibitory concentration (IC50) is > 500 nM.
As for `C[C@H]1CCCCN1CCNC(=O)c1[nH]cnc1C(=O)Nc1ccc(NC(=O)c2ccc(F)cc2Cl)cc1` [Example 266, N^4-{4-[(2-chloro-4-fluorobenzoyl)amino]phenyl}-N^5-{2-[(25)-2-methylpiperidin-1-yl]ethyl}-1H-imidazole-4,5-dicarboxamide formic acid salt], the IC50 worked out at 20 nM.
Under `CC(CN1CCOCC1)NC(=O)c1[nH]cnc1C(=O)Nc1ccc(NC(=O)c2ccc(F)cc2Cl)cc1` (stereo not shown) [Example 268, N^4-{4-[(2-chloro-4-fluorobenzoyl)amino]phenyl}-N^5-[1-(morpholin-4-yl)propan-2-yl]-1H-imidazole-4,5-dicarboxamide] stands 110 nM; under `O=C(Nc1ccc(NC(=O)c2nc[nH]c2C(=O)NCCN2CCC[C@H](O)C2)cc1)c1ccc(F)cc1Cl` [Example 271, N^4-{4-[(2-chloro-4-fluorobenzoyl)amino]phenyl}-N^5-{2-[(3S)-3-hydroxypiperidin-1-yl]ethyl}-1H-imidazole-4,5-dicarboxamide], 6 nM; under `O=C(Nc1ccc(NC(=O)c2nc[nH]c2C(=O)NCCCN2CCCC2)cc1)c1ccc(F)cc1Cl` [Example 274, N^4-{4-[(2-chloro-4-fluorobenzoyl)amino]phenyl}-N^5-[3-(pyrrolidin-1-yl)propyl]-1H-imidazole-4,5-dicarboxamide], 10 nM.
As for `O=C(Nc1ccc(NC(=O)c2nc[nH]c2C(=O)NCCN2CCC[C@@H](F)C2)cc1)c1ccc(F)cc1Cl` [Example 277, N^4-{4-[(2-chloro-4-fluorobenzoyl)amino]phenyl}-N^5-{2-[(3R)-3-fluoropiperidin-1-yl]ethyl}-1H-imidazole-4,5-dicarboxamide], the figure is 70 nM; as for `CC(C)(N)CNC(=O)c1[nH]cnc1C(=O)Nc1ccc(NC(=O)c2ccc(F)cc2Cl)cc1` [Example 280, N^5-(2-amino-2-methylpropyl)-N^4-{4-[(2-chloro-4-fluorobenzoyl)amino]phenyl}-1H-imidazole-4,5-dicarboxamide], 60 nM.
`O=C(Nc1ccc(NC(=O)c2nc[nH]c2C(=O)N[C@@H]2CCNC2)cc1)c1ccc(F)cc1Cl` [Example 282, N^4-{4-[(2-chloro-4-fluorobenzoyl)amino]phenyl}-N^5-[(3R)-pyrrolidin-3-yl]-1H-imidazole-4,5-dicarboxamide hydrochloride salt]: 60 nM corresponded to half-maximal inhibition (IC50).
Under `O=C(Nc1ccc(NC(=O)c2nc[nH]c2C(=O)NCC2CCCN2)cc1)c1ccc(F)cc1Cl` (stereo not shown) [Example 284, N^4-{4-[(2-chloro-4-fluorobenzoyl)amino]phenyl}-N^5-(pyrrolidin-2-ylmethyl)-1H-imidazole-4,5-dicarboxamide hydrochloride salt] stands 60 nM; under `CC(C)(N)CCNC(=O)c1[nH]cnc1C(=O)Nc1ccc(NC(=O)c2ccc(F)cc2Cl)cc1` [Example 286, N^5-(3-amino-3-methylbutyl)-N^4-{4-[(2-chloro-4-fluorobenzoyl)amino]phenyl}-1H-imidazole-4,5-dicarboxamide], 70 nM.
As for `CNCCNC(=O)c1[nH]cnc1C(=O)Nc1ccc(NC(=O)c2ccc(F)cc2Cl)cc1` [Example 287, N^4-{4-[(2-chloro-4-fluorobenzoyl)amino]phenyl}-N^5-[2-(methylamino)ethyl]-1H-imidazole-4,5-dicarboxamide], the figure is 80 nM.
For `CC(C)NCCNC(=O)c1[nH]cnc1C(=O)Nc1ccc(NC(=O)c2ccc(F)cc2Cl)cc1` [Example 288, N^4-{4-[(2-chloro-4-fluorobenzoyl)amino]phenyl}-N^5-[2-(isopropylamino)ethyl]-1H-imidazole-4,5-dicarboxamide], the IC50 came out at 30 nM.
As for `CNC(=O)c1nc[nH]c1C(=O)Nc1ccc(NC(=O)c2cccc(C)c2Cl)cc1` [Example 346, N^5-{4-[(2-chloro-3-methylbenzoyl)amino]phenyl}-N^4-methyl-1H-imidazole-4,5-dicarboxamide], the figure is > 500 nM; as for `CNC(=O)c1nc[nH]c1C(=O)Nc1ccc(NC(=O)c2ccc(C#N)cc2F)cc1` [Example 369, N^5-{4-[(4-cyano-2-fluorobenzoyl)amino]phenyl}-N^4-methyl-1H-imidazole-4,5-dicarboxamide], 260 nM.
In turn, `CCN1CCCC1CNC(=O)c1nc[nH]c1C(=O)Nc1ccc(NC(=O)c2ccc(F)cc2Cl)cc1` (stereo not shown) [Example 390, N^5-{4-[(2-chloro-4-fluorobenzoyl)amino]phenyl}-N^4-[(1-ethylpyrrolidin-2-yl)methyl]-1H-imidazole-4,5-dicarboxamide] gave an IC50 of 0.9 nM.
Consider `CN1CCN(CCCNC(=O)c2nc[nH]c2C(=O)Nc2ccc(NC(=O)c3ccc(F)cc3Cl)cc2)CC1` [Example 392, N^5-{4-[(2-chloro-4-fluorobenzoyl)amino]phenyl}-N^4-[3-(4-methylpiperazin-1-yl)propyl]-1H-imidazole-4,5-dicarboxamide], for which the IC50 was found to be 20 nM.
For `CC1CCN(CCCNC(=O)c2nc[nH]c2C(=O)Nc2ccc(NC(=O)c3ccc(F)cc3Cl)cc2)CC1` [Example 400, N^5-{4-[(2-chloro-4-fluorobenzoyl)amino]phenyl}-N^4-[3-(4-methylpiperidin-1-yl)propyl]-1H-imidazole-4,5-dicarboxamide], the IC50 was found to be 20 nM.
Take `CCN1CCC[C@H]1CNC(=O)c1nc[nH]c1C(=O)Nc1ccc(NC(=O)c2ccc(F)cc2Cl)cc1` [Example 404, N^5-{4-[(2-chloro-4-fluorobenzoyl)amino]phenyl}-N^4-{[(2S)-1-ethylpyrrolidin-2-yl]methyl}-1H-imidazole-4,5-dicarboxamide]: inhibition was half-maximal at 1 nM (IC50).
Consider `CN1CCC(CNC(=O)c2nc[nH]c2C(=O)Nc2ccc(NC(=O)c3ccc(F)cc3Cl)cc2)C1` (stereo not shown) [Example 407, N^5-{4-[(2-chloro-4-fluorobenzoyl)amino]phenyl}-N^4-[(1-methylpyrrolidin-3-yl)methyl]-1H-imidazole-4,5-dicarboxamide], for which half-maximal inhibition (IC50) required 10 nM.
